Read-outs that look alike come from different tables or passages of the source.
Key:
[1] = molecular target: T1, BRD4 BD1 I146A (Homo sapiens, UniProt O60885, I146A); conditions: TR-FRET competition
Protocol: (§1) Standard free energy of binding (ΔG°) and entropy (ΔS°) were calculated with the equations ΔG° = −RTln(1/KD°) and −TΔS° = ΔG° × ΔH°b. To facilitate comparisons dΔG° was also calculated: dΔG° = ΔG° (mt) − ΔG° (WT).
(§2) The experiments were performed in 384-well black small volume microtiter plates (Greiner) in a buffer composed of 50 mM Hepes, pH 7.5 (Applichem), 50 mM NaCl (Sigma), 400 mM KF (Sigma), 0.5 mM CHAPS (Sigma), and 0.05% BSA (Sigma) in a final volume of 5–10 μl (n = 4). BRD4 (100 nM) protein domains were mixed with 200 nM concentrations of the biotin-labeled histone peptides and incubated for 30 min at room temperature. The protein-peptide complexes at equilibrium were then detected with 5 nM Eu^3+ cryptate-conjugated streptavidin (CisBio) and 10 nM anti-His6-XL665 (Cisbio). To analyze the binding of mutated histone peptides at different ionic strengths, streptavidin Eu^3+ chelate (W1024, PerkinElmer Life Sciences) was used instead of cryptate as fluorescence donor, and KF was replaced by NaCl at concentrations of 20, 100, and 500 mM. After 3 h of further incubation at 4 °C, the plates were measured in a PheraStar reader (BMG Labtech) using the homogeneous time-resolved fluorescence module (excitation, 337 nm with 10 flashes; emission, 620 and 665 nm). […]

[2] = molecular target: BRD4 BD1 wild type; conditions: WT, TR-FRET competition, 50 nM protein, 200 nM biotinylated H4 peptide; IC50 expressed as KD; mean ± S.D.
Protocol: as §1, §2

[3] = system: BRD4 BD1 mutants
Protocol: The TR-FRET binding assay used to measure the interaction of BRD4 with acetylated peptides was a modified version of a previously described protocol ([18]). The experiments were performed in 384-well black small volume microtiter plates (Greiner) in a buffer composed of 50 mM Hepes, pH 7.5 (Applichem), 50 mM NaCl (Sigma), 400 mM KF (Sigma), 0.5 mM CHAPS (Sigma), and 0.05% BSA (Sigma) in a final volume of 5–10 μl (n = 4). BRD4 (100 nM) protein domains were mixed with 200 nM concentrations of the biotin-labeled histone peptides and incubated for 30 min at room temperature. The protein-peptide complexes at equilibrium were then detected with 5 nM Eu^3+ cryptate-conjugated streptavidin (CisBio) and 10 nM anti-His6-XL665 (Cisbio). To analyze the binding of mutated histone peptides at different ionic strengths, streptavidin Eu^3+ chelate (W1024, PerkinElmer Life Sciences) was used instead of cryptate as fluorescence donor, and KF was replaced by NaCl at concentrations of 20, 100, and 500 mM.
The plates were then processed as described above. IC50 values were calculated by plotting the log [competitor/inhibitor] versus mean normalized response data from at least two independent experiments measured in triplicate and fitting it to a four-parameter equation with variable Hill slope, Y = bottom + (top-bottom)/(1 + 10^(logIC50 − ^X^) × Hill slope)), using the GraphPad Prism software. […]

[4] = system: BRD4 BD1 mutants; format: cell-based, human
Protocol: (§3) For the cellular stabilization assays, the codon-optimized sequence of the wild-type and mutant versions of BRD4 BD1 (amino acids 44–166) flanked by an N-terminal His6 tag and a C-terminal FLAG tag and by 5′ and 3′ site-specific attachment sites for recombination using the Gateway technology (Invitrogen) were prepared by total DNA synthesis (GeneArt). The synthesized DNA fragments were cloned into the pTT5 ([49]) destination vector using a lambda site-specific recombination system (LR-recombination, Gateway Technology, Invitrogen). Plasmid DNA was prepared using the QIAprep Spin Miniprep kit (Qiagen).
(§4) HEK293–6E cells (Yves Durocher, National Research Council Canada) were grown in suspension with gentle shaking in FreeStyle F17 medium (Invitrogen) containing 4 mM L-alanyl-L-glutamine (BioChrom AG) and 0.1% Pluronic (Invitrogen). For transfection with DNA, 10 ml of cell suspension at a density of 10^6 cells/ml were prepared. […]
(§5) Plates were incubated at room temperature in the dark for 2 h. Time-resolved fluorescence was measured with a PHERAstar FS microplate reader (BMG Labtech) using the homogeneous time-resolved fluorescence module (excitation 337 nm, emission 1: 620 nm; emission 2: 665 nm). […]

[5] = molecular target: T2, BRD4 BD1 L94A (Homo sapiens, UniProt O60885, L94A); conditions: TSA
Protocol: (§6) In a typical TSA, 0.4 μg of BRD4 BD1 protein were mixed with 5× Sypro Orange (Molecular Probe) and adjusted to a final volume of 5 μl with 100 mM HEPES buffer, pH 7.5 (Applichem), and 150 mM NaCl (Sigma). […] To protect samples from evaporation, they were overlaid with 1 μl of silicone oil DC200 (Sigma). Melting curves were recorded using a ThermoFluor system (Johnson and Johnson Pharmaceutical Research and Development) after heating the samples from 25 up to 95 °C while measuring the fluorescence intensity of the dye with the excitation and emission filters set to 465 and 590 nm, respectively. For data analysis, melting curves (fluorescence intensity changes at increasing temperatures) were fitted using a first derivative method ([51]) to determine the melting point Tm and the unfolding enthalpy ΔHu using the evaluation software provided by the manufacturer of the instrument. […] The heat capacity of protein unfolding (ΔCpu) was assumed to be independent of the temperature and estimated from the size of the protein using the equation ([52]), ΔCpu = −119 + 0.20(−907 + 93(#residues)). […] ([53]).
as §1

[6] = molecular target: T3, BRD4 BD1 P82A (Homo sapiens, UniProt O60885, P82A); conditions: TSA
Protocol: as §6, §1

[7] = molecular target: T4, BRD4 BD1 D144A (Homo sapiens, UniProt O60885, D144A)
[8] = system: BRD4 wild type; assay: FRAP of GFP-BRD4 wild type with JQ1; format: cell-based, human; conditions: U2OS cells, 1 μM JQ1 1 h before imaging
Protocol: For the photobleaching experiments we used full-length human BRD4 cDNA (RefSeq NM_058243.2) cloned into the pcDNA6.2/N-EmGFP-DEST plasmid (Invitrogen) by the Gateway technology (Invitrogen) to create a chimeric green fluorescent protein (GFP)/wild-type BRD4 expression construct. […] The synthesized DNA fragments were cloned into the pTT5 ([49]) destination vector using a lambda site-specific recombination system (LR-recombination, Gateway Technology, Invitrogen). Plasmid DNA was prepared using the QIAprep Spin Miniprep kit (Qiagen).
FRAP studies were performed using a protocol modified from previous work ([17], [55]). In brief, U2OS cells were reverse-transfected (Lipofectamine 2000, Invitrogen) with mammalian expression constructs encoding chimeric GFP-BRD4 (wild type or mutants). […] The average intensity at each imaging time point was measured for three regions of interest: the bleached region (It), the total cell nucleus (Tt), and a random region outside of the cell for background subtraction (BG). […] The base line was normalized to zero, and the prebleach was normalized to 1. Normalized data were imported into GraphPad Prism 6.0, and half-times of recovery (t½) were calculated from individual single exponential curve fits for each cell and presented as the mean for each group. p values were calculated using an unpaired t test.

[9] = molecular target: T5, BRD4 BD1 D145A (Homo sapiens, UniProt O60885, D145A); conditions: TR-FRET competition
Protocol: as §1, §2

[10] = molecular target: T1, BRD4 BD1 I146A; conditions: TSA
Protocol: as §6, §1

[11] = molecular target: T6, BRD4 BD1 W81A (Homo sapiens, UniProt O60885, W81A); conditions: TSA
Protocol: as §6, §1

[12] = system: BRD4 BD1 Y97F; conditions: TSA, 100 μM JQ1, pH 7.5, mean ± S.D.
Protocol: as §6, §1

[13] = molecular target: T2, BRD4 BD1 L94A
[14] = molecular target: T7, BRD4 BD1 Y139F (Homo sapiens, UniProt O60885, Y139F)
[15] = molecular target: T3, BRD4 BD1 P82A; conditions: TR-FRET competition
Protocol: as §1, §2

[16] = system: BRD4 BD1 Y97F; conditions: read-out: EC50 (protein stabilization)
Protocol: as §3, §4, §5

[17] = molecular target: T7, BRD4 BD1 Y139F; conditions: TSA
Protocol: as §6, §1

[18] = system: BRD4 BD1 N140A; conditions: read-out: EC50 (protein stabilization)
Protocol: as §3, §4, §5

[19] = system: BRD4 BD1 mutants; remark: listed apart in the source
Protocol: After 30 min of incubation at room temperature, the plates were measured in a Tecan M1000 plate reader using its FP module and excitation/emission wavelengths of 530 and 570 nm, respectively. For KD determinations the background-corrected polarization values were plotted against the concentrations of BRD4, and the data were fitted to a one-site binding equation: Y = Bmax × X/(KD + X), where Y is the specific binding, and Bmax is the maximal binding, using the GraphPad Prism software. Free energy of binding ΔG was calculated as described above.

[20] = molecular target: T6, BRD4 BD1 W81A
[21] = molecular target: T4, BRD4 BD1 D144A; conditions: TR-FRET competition
Protocol: as §1, §2

[22] = system: BRD4 BD1 wild type
Protocol: as §3, §4, §5

[23] = molecular target: T5, BRD4 BD1 D145A
[24] = system: BRD4 BD1 N140A; conditions: TSA, 100 μM JQ1, pH 7.5, mean ± S.D.
Protocol: as §6, §1

[25] = molecular target: T5, BRD4 BD1 D145A; conditions: TSA
Protocol: as §6, §1

[26] = molecular target: T7, BRD4 BD1 Y139F; conditions: TR-FRET competition
Protocol: as §1, §2

[27] = molecular target: T3, BRD4 BD1 P82A
[28] = molecular target: T4, BRD4 BD1 D144A; conditions: TSA
Protocol: as §6, §1

[29] = molecular target: BRD4 BD1 wild type; conditions: pH 7.5
[30] = system: BRD4 BD1 wild type; conditions: WT, TSA
Protocol: as §6, §1

[31] = system: Patient-derived NMC tumors; conditions: xenograft, ref [17], [26]; cited from earlier work
[32] = molecular target: T8, BRD4 BD1 M149A (Homo sapiens, UniProt O60885, M149A); conditions: TSA
Protocol: as §6, §1

[33] = molecular target: T2, BRD4 BD1 L94A; conditions: TR-FRET competition
Protocol: as §1, §2

[34] = molecular target: T8, BRD4 BD1 M149A
[35] = system: BRD4 BD1 mutants; assay: Thermal shift assay with JQ1, mutants as a group; format: binding, human; conditions: 100 μM JQ1
Protocol: In a typical TSA, 0.4 μg of BRD4 BD1 protein were mixed with 5× Sypro Orange (Molecular Probe) and adjusted to a final volume of 5 μl with 100 mM HEPES buffer, pH 7.5 (Applichem), and 150 mM NaCl (Sigma). […] To protect samples from evaporation, they were overlaid with 1 μl of silicone oil DC200 (Sigma). […] For data analysis, melting curves (fluorescence intensity changes at increasing temperatures) were fitted using a first derivative method ([51]) to determine the melting point Tm and the unfolding enthalpy ΔHu using the evaluation software provided by the manufacturer of the instrument. A series of thermal melting curves was collected in the presence of varying inhibitor concentrations.
as §1

[36] = molecular target: T1, BRD4 BD1 I146A
[37] = molecular target: BRD4; assay: TR-FRET displacement of the H4 peptide by the JQ1-TAMRA probe; format: binding, human; conditions: data not shown
[38] = 100 μM JQ1, pH 7.5, mean ± S.D.

SMILES: Cc1sc2c(c1C)C(c1ccc(Cl)cc1)=N[C@@H](CC(=O)OC(C)(C)C)c1nnc(C)n1-2 [JQ1, tert-butyl[(6S)-4-(4-chlorophenyl)-2,3,9-trimethyl-6H-thieno[3,2-f][1,2,4]triazolo[4,3-a][1,4]diazepin-6-yl]acetate]
- ΔG [1]: -9.39 kcal/mol
- Kd [2]: 106 ± 13.9 nM
- inhibition of BRD4-H4 interaction vs wild type (in words) ([3]; Leu-94 and Asp-145 mutated to alanine): better inhibitor
- inhibition of BRD4-H4 interaction vs wild type (in words) ([3]; P82A): slightly decreased
- EC50 increase vs wild type [4]: from 7-fold to >100-fold
- ΔG° [5]: -11.8 kcal/mol
- −TΔS° [5]: -7.6 kcal/mol
- ΔTm [5, 38]: 6.9 ± 0.4 °C
- ΔH°b ([5]; 100 μM JQ1 vs DMSO): -4.23 kcal/mol
- ΔG° [6]: -11.5 kcal/mol
- −TΔS° [6]: -7.36 kcal/mol
- ΔTm [6, 38]: 5.1 ± 0.2 °C
- ΔH°b ([6]; 100 μM JQ1 vs DMSO): -4.16 kcal/mol
- ΔG [7]: -9.89 kcal/mol
- half-fluorescence recovery (in words) [8]: enhanced half-fluorescence recovery
- increase of inhibitory activity vs wild type [9]: 6 fold
- ΔG [9]: -10.5 kcal/mol
- ΔG° [10]: -11.8 kcal/mol
- −TΔS° [10]: -9.66 kcal/mol
- ΔTm [10, 38]: 6.1 ± 0.3 °C
- ΔH°b ([10]; 100 μM JQ1 vs DMSO): -2.1 kcal/mol
- ΔG° [11]: -10.7 kcal/mol
- −TΔS° [11]: -8.53 kcal/mol
- ΔTm [11, 38]: 2.8 ± 0.4 °C
- ΔH°b ([11]; 100 μM JQ1 vs DMSO): -2.2 kcal/mol
- ΔTm [12]: 3.1 ± 0.6 °C
- ΔG [13]: -9.66 kcal/mol
- JQ1 binding compared with wild type (in words) [14]: not significantly different compared with wild-type BRD4 BD1
- ΔG [14]: -10.8 kcal/mol
- ΔG [15]: -9.13 kcal/mol
- EC50 [16]: > 10000 nM
- ΔG° [17]: -12.3 kcal/mol
- −TΔS° [17]: -7.84 kcal/mol
- ΔTm [17, 38]: 9.8 ± 0.3 °C
- ΔH°b ([17]; 100 μM JQ1 vs DMSO): -4.47 kcal/mol
- EC50 [18]: 8400 nM
- effect of mutation on JQ1 binding (in words) [19]: strongest effects
- ΔG [20]: -8.29 kcal/mol
- ΔG [21]: -9.94 kcal/mol
- protein levels (in words) [22]: dose-dependent and saturable increase of the TR-FRET signals
- EC50 ([22]; read-out: EC50 (protein stabilization)): 100 nM
- JQ1 binding compared with wild type (in words) [23]: not significantly different compared with wild-type BRD4 BD1
- ΔG [23]: -10.6 kcal/mol
- ΔTm [24]: 3.3 ± 0.4 °C
- ΔG° [25]: -12.2 kcal/mol
- −TΔS° [25]: -10.7 kcal/mol
- ΔTm [25, 38]: 9.2 ± 0.6 °C
- ΔH°b ([25]; 100 μM JQ1 vs DMSO): -1.55 kcal/mol
- ΔG [26]: -9.75 kcal/mol
- ΔG [27]: -9.06 kcal/mol
- ΔG° [28]: -12.3 kcal/mol
- −TΔS° [28]: -9.89 kcal/mol
- ΔTm [28, 38]: 9.5 ± 0.6 °C
- ΔH°b ([28]; 100 μM JQ1 vs DMSO): -2.37 kcal/mol
- Kd [29]: 14.5 ± 3.3 nM
- ΔTm ([30]; 100 μM JQ1, 100 mM HEPES pH 7.5, 150 mM NaCl, mean ± S.D.): 9.6 ± 0.6 °C
- Kd ([30]; extrapolated standard KD): 1 nM
- tumor inhibition (in words) [31]: inhibited
- ΔG° [32]: -10.9 kcal/mol
- −TΔS° [32]: -10.8 kcal/mol
- ΔTm [32, 38]: 3.2 ± 0.3 °C
- ΔH°b ([32]; 100 μM JQ1 vs DMSO): -0.12 kcal/mol
- ΔG [33]: -9.94 kcal/mol
- ΔG [34]: -8.96 kcal/mol
- stabilization by JQ1 (in words) ([35]; P82A, L94A, and I146A): moderate stabilization profile
- stabilization by JQ1 (in words) ([35]; W81A, Y97F, N140A, and M149A): least stabilized by JQ1
- stabilization by JQ1 (in words) ([35]; Y139F, D144A, and D145A): as strongly as wild-type BD1
- ΔG [36]: -8.7 kcal/mol

SMILES: Cc1sc2c(c1C)C(c1ccc(Cl)cc1)=N[C@@H](CC(=O)NCCCCCNC(=O)c1ccc(-c3c4ccc(=[N+](C)C)cc-4oc4cc(N(C)C)ccc34)c(C(=O)[O-])c1)c1nnc(C)n1-2 [JQ1-TAMRA, 5-{[5-({[(6S)-4-(4-chlorophenyl)-2,3,9-trimethyl-6H-thieno[3,2-f][1,2,4]triazolo [4,3-a][1,4]diazepin-6-yl]acetyl}amino)pentyl]carbamoyl}-2-[6-(dimethylamino)-3-(dimethyliminio)-3H-xanthen-9-yl]benzoate]
- KD (in words) [37]: comparable with that of JQ1
